From US20250195513A1, “DEGRADATION OF IRAK4 BY CONJUGATION OF IRAK4 INHIBITORS WITH E3 LIGASE LIGAND AND METHODS OF USE” (BeiGene, Ltd., priority 2022, published 2025) come the findings set out here.

Where two headings read alike, the source gives them in different places.

For this assay, the target named is T1, IRAK4 (Homo sapiens, UniProt Q9NWZ3).
T1 construct: endogenous in cells; host or cells: Karpas299
T1 sequence (Q9NWZ3 1-460): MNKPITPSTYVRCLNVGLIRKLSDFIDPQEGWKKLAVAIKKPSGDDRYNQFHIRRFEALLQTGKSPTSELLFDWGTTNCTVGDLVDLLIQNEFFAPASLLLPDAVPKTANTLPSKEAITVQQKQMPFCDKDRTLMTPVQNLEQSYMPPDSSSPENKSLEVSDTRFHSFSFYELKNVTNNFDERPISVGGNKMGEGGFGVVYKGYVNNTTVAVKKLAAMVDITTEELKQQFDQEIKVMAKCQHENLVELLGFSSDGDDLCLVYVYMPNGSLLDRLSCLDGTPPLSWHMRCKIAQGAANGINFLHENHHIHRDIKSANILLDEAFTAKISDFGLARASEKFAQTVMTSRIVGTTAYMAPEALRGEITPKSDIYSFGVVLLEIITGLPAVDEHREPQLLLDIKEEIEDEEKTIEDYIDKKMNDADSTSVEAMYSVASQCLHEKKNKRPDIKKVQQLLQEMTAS
Nature of the assay: IRAK4 Degradation Assay (Karpas299, HTRF/TR-FRET). Format: cell-based. Summed up:
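Compound potency as DC50 (IC50) came from four-parameter fits of percent IRAK4 degradation. IRAK4 was measured by HTRF (665/620 nm) in lysates of Karpas299 cells seeded at 0.2 million per well. Cells had been treated with compound dilutions for 5 or 24 h.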

[1] abbreviates: Degradation (Karpas-299), comparison table, Linker Type A, read-out: Compound (Linker Type A) DC50.
Setting [2] is: Degradation (Karpas-299), comparison table, Linker Type A, read-out: Compound (Linker Type A) Dmax (%).
The mark [3] stands for this setting: Karpas-299 cells, 24 h treatment, maximum percentage of degradation, read-out: IRAK4 in Karpas-299 (24 h) Dmax (%).
Setting [4] is: Karpas-299 cells, 24 h treatment, read-out: IRAK4 in Karpas-299 (24 h) DC50.

In general, DC50 refers to the concentration giving 50% degradation. A word on the Dmax: it is the largest share of the target that was removed. On to `O=C1CC[C@H](c2c(F)cc(N3CC(C(=O)N4CCN(C[C@H]5CC[C@H](n6cc(NC(=O)c7coc(-c8ccnc(NCC(F)(F)F)c8)n7)c(C(F)F)n6)CC5)CC4)C3)cc2F)C(=O)N1` [Example 4, N-(3-(difluoromethyl)-1-((1r,4r)-4-((4-(1-(4-((R)-2,6-dioxopiperidin-3-yl)-3,5-difluorophenyl)azetidine-3-carbonyl)piperazin-1-yl)methyl)cyclohexyl)-1H-pyrazol-4-yl)-2-(2-((2,2,2-trifluoroethyl)amino)pyridin-4-yl)oxazole-4-carboxamide], for which the DC50 worked out at 6.2 nM under setting [1] and 6.2 nM under setting [4]. Besides, the Dmax reads like this: under setting [2], 95%; under setting [3], 95%.
With `CC(C)(O)c1cc2nn([C@H]3CC[C@H](N4CCN(C(=O)/C=C/C56CC7CC(CC(C7)C5)C6)CC4)CC3)cc2cc1NC(=O)c1ccc2cc(C#N)cnn12` [Example 441, N-(2-((1r,4r)-4-(4-((E)-3-(adamantan-1-yl)acryloyl)piperazin-1-yl)cyclohexyl)-6-(2-hydroxypropan-2-yl)-2H-indazol-5-yl)-3-cyanopyrrolo[1,2-b]pyridazine-7-carboxamide], the Dmax under setting [3] amounted to 4%. Also, under setting [4], the 50% degradation concentration (DC50) is greater than 1000 nM.
Taken in the same sequence, the figures for `COc1cc2nn([C@H]3CC[C@H](CN4CCN(C(=O)[C@@H]5CCN(c6cc(F)c(N7CCC(=O)NC7=O)c(F)c6)C5)CC4)CC3)cc2cc1NC(=O)c1cccn(C2CC2)c1=O` [Example 171, 1-cyclopropyl-N-(2-((1R,4r)-4-((4-((R)-1-(4-(2,4-dioxotetrahydropyrimidin-1(2H)-yl)-3,5-difluorophenyl)pyrrolidine-3-carbonyl)piperazin-1-yl)methyl)cyclohexyl)-6-methoxy-2H-indazol-5-yl)-2-oxo-1,2-dihydropyridine-3-carboxamide] were 95% and 10 nM.
In the same order, the values of `CC(C)(O)c1cc2nn([C@H]3CC[C@H](CN4CCN(C(=O)C5CN(c6cc(F)c([C@H]7CCC(=O)NC7=O)c(F)c6)C5)CC4)CC3)cc2cc1NC(=O)c1csc(-c2cn[nH]c2)n1` [Example 434, N-(2-((1r,4r)-4-((4-(1-(4-((R)-2,6-dioxopiperidin-3-yl)-3,5-difluorophenyl)azetidine-3-carbonyl)piperazin-1-yl)methyl)cyclohexyl)-6-(2-hydroxypropan-2-yl)-2H-indazol-5-yl)-2-(1H-pyrazol-4-yl)thiazole-4-carboxamide] are 97% and 0.2 nM.
Regarding `COc1cc2nn([C@H]3CC[C@H](CN4CCN(C(=O)C5CN(c6ccc(N7CCC(=O)NC7=O)cc6)C5)CC4)CC3)cc2cc1NC(=O)c1cccc(C(F)(F)F)n1` [Example 5, N-(2-((1r,4r)-4-((4-(1-(4-(2,4-dioxotetrahydropyrimidin-1(2H)-yl)phenyl)azetidine-3-carbonyl)piperazin-1-yl)methyl)cyclohexyl)-6-methoxy-2H-indazol-5-yl)-6-(trifluoromethyl)picolinamide], the half-maximal degradation concentration (DC50) by setting is: under setting [1], 14 nM; under setting [4], 14 nM. The Dmax by setting is: under setting [2], 92%; under setting [3], 92%.
For the molecule `O=C1CCN(c2ccc(N3CC(C(=O)N4CCN([C@H]5CC[C@H](n6cc(NC(=O)c7coc(-c8ccnc(NCC9CC9)c8)n7)c(C(F)F)n6)CC5)CC4)C3)cc2)C(=O)N1` [Example 24, 2-(2-((cyclopropylmethyl)amino)pyridin-4-yl)-N-(3-(difluoromethyl)-1-((1r,4r)-4-(4-(1-(4-(2,4-dioxotetrahydropyrimidin-1(2H)-yl)phenyl)azetidine-3-carbonyl)piperazin-1-yl)cyclohexyl)-1H-pyrazol-4-yl)oxazole-4-carboxamide], under setting [3], the maximal degradation (Dmax) worked out at 98%. Under setting [4], the DC50 was 2.8 nM.
On to `COc1cc2nn(C3CCN(C4CN(C(=O)C5CN(c6cc(F)c([C@H]7CCC(=O)NC7=O)c(F)c6)C5)C4)CC3)cc2cc1NC(=O)c1cccc(C(F)(F)F)n1` [Example 41, (R)—N-(2-(1-(1-(1-(4-(2,6-dioxopiperidin-3-yl)-3,5-difluorophenyl)azetidine-3-carbonyl)azetidin-3-yl)piperidin-4-yl)-6-methoxy-2H-indazol-5-yl)-6-(trifluoromethyl)picolinamide], for which the Dmax under setting [3] is 95%. Under setting [4], the DC50 stood at 1.1 nM.
Regarding `CC(C)(O)c1cc2nn([C@H]3CC[C@H](N4CCN(C(=O)C5CN(c6cc(F)c([C@H]7CCC(=O)NC7=O)c(F)c6)C5)CC4)CC3)cc2cc1NC(=O)c1cccn(C2CC2)c1=O` [Example 102, 1-cyclopropyl-N-(2-((1r,4r)-4-(4-(1-(4-((R)-2,6-dioxopiperidin-3-yl)-3,5-difluorophenyl)azetidine-3-carbonyl)piperazin-1-yl)cyclohexyl)-6-(2-hydroxypropan-2-yl)-2H-indazol-5-yl)-2-oxo-1,2-dihydropyridine-3-carboxamide], the maximal degradation (Dmax) is, setting by setting: (Karpas-299 cells, 5 h treatment, maximum percentage of degradation, read-out: IRAK4 in Karpas-299 (5 h) Dmax (%)) 61%; under setting [3], 94%. For the same molecule, the DC50 is 12 nM (Karpas-299 cells, 5 h treatment, read-out: IRAK4 in Karpas-299 (5 h) DC50) and 2 nM under setting [4].
For the molecule `COc1cc2nn([C@H]3CC[C@H](CN4CCN(C(=O)[C@@H]5CCN(c6ccc(N7CCC(=O)NC7=O)cc6)C5)CC4)CC3)cc2cc1NC(=O)c1cccc(C(F)(F)F)n1` [Example 36, N-(2-((1R,4r)-4-((4-((R)-1-(4-(2,4-dioxotetrahydropyrimidin-1(2H)-yl)phenyl)pyrrolidine-3-carbonyl)piperazin-1-yl)methyl)cyclohexyl)-6-methoxy-2H-indazol-5-yl)-6-(trifluoromethyl)picolinamide], the DC50 by setting is: under setting [1], 15 nM; under setting [4], 15 nM. Besides, the Dmax reads like this: under setting [2], 89%; under setting [3], 89%.
Regarding `O=C1CCN(c2ccc(N3CC[C@@H](C(=O)N4CCN([C@H]5CC[C@H](n6cc(NC(=O)c7coc(-c8ccnc(NCC(F)(F)F)c8)n7)c(C(F)F)n6)CC5)CC4)C3)cc2)C(=O)N1` [Example 14, N-(3-(difluoromethyl)-1-((1R,4r)-4-(4-((R)-1-(4-(2,4-dioxotetrahydropyrimidin-1(2H)-yl)phenyl)pyrrolidine-3-carbonyl)piperazin-1-yl)cyclohexyl)-1H-pyrazol-4-yl)-2-(2-((2,2,2-trifluoroethyl)amino)pyridin-4-yl)oxazole-4-carboxamide], under setting [3], the Dmax worked out at 70%. The DC50 under setting [4] was 3.4 nM.
In the same order, the values of `O=C1CC[C@H](c2c(F)cc(N3CCC(CN4CCN([C@H]5CC[C@H](n6cc(NC(=O)c7coc(-c8ccnc(NCC(F)(F)F)c8)n7)c(C(F)F)n6)CC5)CC4)CC3)cc2F)C(=O)N1` [Example 20, N-(3-(difluoromethyl)-1-((1r,4r)-4-(4-((1-(4-((R)-2,6-dioxopiperidin-3-yl)-3,5-difluorophenyl)piperidin-4-yl)methyl)piperazin-1-yl)cyclohexyl)-1H-pyrazol-4-yl)-2-(2-((2,2,2-trifluoroethyl)amino)pyridin-4-yl)oxazole-4-carboxamide] are 97% and 4.8 nM.
